Source: US9540691B2, “Assays and methods for selecting a treatment regimen for a subject with depression” (THE GENERAL HOSPITAL CORPORATION, priority 2011, dated 2017)
Like-named read-outs stand apart in the source and are kept apart here.

Experiments:
[1] = test system: patients with major depressive disorder (MDD) resistant to treatment with SSRIs
Description: Documentation of the presence of any side effect or adverse event is completed at every visit using the SAFTEE-SI. Subjects can contact a clinician at any time between visits concerning adverse events or worsening of symptoms. Suicidal ideation is assessed at each visit. Subjects who are felt by the study clinician to be at high risk for suicide are discontinued from the study and referred for hospitalization and further treatment if clinically indicated (See Tables 4 & 5 below).
One-way analysis of variance can be used to assess differences in total number of SAFTEE-SI AEs between baseline and endpoint.
The study involved the enrollment of a total of 148 patients with MDD over the course of 12 months across 10 medical centers or hospitals in the United States. […] In accordance with the sequential parallel design, the 60-day, double-blind treatment was divided into two phases of 30 days each, with assessments performed every 10 days. […] For those randomly assigned to the placebo/placebo sequence, both responders and non-responders to placebo during the first phase remained on placebo during the second phase.

[2] = test system: MDD patients with at least one rare variant in an indicated SNP biomarker; settings: with an SSRI
[3] = L-methylfolate 7.5 mg (n = 24) with SSRI
[4] = L-methylfolate 7.5 mg vs placebo
[5] = L-methylfolate 16 mg (n = 30) with SSRI
[6] = L-methylfolate 16 mg vs placebo
[7] = CACNA1C rs1006737 (AG), 13(30, 16)
[8] = COMT (Val 158) rs4633 (CC), 22(18, 9)
[9] = COMT (Val 158 Met) rs4680 (GG), 33(17, 9)
[10] = DAT (SLC6A3) rs250682 (CG), 33(33, 15)
[11] = DNMT38 rs1883729 (AG), 11(13, 8)
[12] = DNMT38 rs1883729 (AG), 11/13(32, 18)
[13] = DNMT38 rs1883729 (AG), 13(19, 10)
[14] = DRD2 (H313H) rs6275 (TT), 11(10, 5)
[15] = DRD2 (SLC26A9) rs11240594 (AG), 33(36, 20)
[16] = DRD2 (Taql Br) rs1079596 (TC), 42(18, 11)
[17] = DRD2 (Taql Br) rs1079596 (TC), 42/44(18, 11)
[18] = FDRC rs2277820 (TC), 22(30, 15)
[19] = GCHFR rs7163862 (TA), 41(37, 20)
[20] = GCHI rs8007267 (TC), 42(22, 10)
[21] = GCPH or FOLH1 rs202676 (AG), 31(23, 9)
[22] = MTHFD 1 G1958A (R653Q) rs2236225 (AG), 33(28, 16)
[23] = MTHFR G1793A rs2274976 (GA), 42(19, 5)
[24] = PCYT1A rs7639752 (AA), 11(12, 7)
[25] = RCF1 A > G rs2297291 (AA), 11(12, 7)
[26] = RCF2 (in SLC19A3) rs12659 (TT), 11(10, 7)
[27] = RCFI (in SLC19A1) rs1051266 (AA), 44(11, 6)

SMILES: CN1c2c(nc(N)[nH]c2=O)NC[C@@H]1CNc1ccc(C(=O)N[C@@H](CCC(=O)O)C(=O)O)cc1 [6(S)-5-MTHF, 6(S)-5-methyltetrahydrofolate]
- Cardiovascular side effects, Frequency (%) [1, 3]: 0 (0%)
- Gastrointestinal side effects, Frequency (%) [1, 3]: 9 (9.8%)
- Infectious side effects, Frequency (%) [1, 3]: 6 (6.4%)
- Miscellaneous side effects, Frequency (%) [1, 3]: 1 (1.1%)
- Paychological [sic] side effects, Frequency (%) [1, 3]: 2 (2.1%)
- Sexual side effects, Frequency (%) [1, 3]: 0 (0%)
- Sleep side effects, Frequency (%) [1, 3]: 3 (3.2%)
- Somatic side effects, Frequency (%) [1, 3]: 9 (8.6%)
- Cardiovascular side effects, NNH [1, 4]: < placebo
- Gastrointestinal side effects, NNH [1, 4]: < placebo
- Infectious side effects, NNH [1, 4]: < placebo
- Miscellaneous side effects, NNH [1, 4]: < placebo
- Paychological [sic] side effects, NNH [1, 4]: < placebo
- Sexual side effects, NNH [1, 4]: =placebo
- Sleep side effects, NNH [1, 4]: < placebo
- Somatic side effects, NNH [1, 4]: < placebo
- Cardiovascular side effects, Frequency (%) [1, 5]: 2 (6.7%)
- Gastrointestinal side effects, Frequency (%) [1, 5]: 3 (10.0%)
- Infectious side effects, Frequency (%) [1, 5]: 2 (6.7%)
- Miscellaneous side effects, Frequency (%) [1, 5]: 2 (6.7%)
- Paychological [sic] side effects, Frequency (%) [1, 5]: 2 (6.7%)
- Sexual side effects, Frequency (%) [1, 5]: 0 (0%)
- Sleep side effects, Frequency (%) [1, 5]: 2 (6.7%)
- Somatic side effects, Frequency (%) [1, 5]: 3 (10.0%)
- Cardiovascular side effects, NNH [1, 6]: < placebo
- Gastrointestinal side effects, NNH [1, 6]: < placebo
- Infectious side effects, NNH [1, 6]: < placebo
- Miscellaneous side effects, NNH [1, 6]: < placebo
- Paychological [sic] side effects, NNH [1, 6]: < placebo
- Sexual side effects, NNH [1, 6]: =placebo
- Sleep side effects, NNH [1, 6]: < placebo
- Somatic side effects, NNH [1, 6]: < placebo
- adverse side effect when administered with an SSRI (in words) ([1]; Trial 1): does not appear to cause any adverse side effect
- EFFECT on change in HAMD-28, PHASE I [2, 7]: −8.006
- EFFECT on change in HAMD-28, PHASE II [2, 7]: −2.467
- EFFECT on change in HAMD-28, POOLED PHASES [2, 7]: −4.633
- EFFECT on change in HAMD-28, PHASE I [2, 8]: −10.070
- EFFECT on change in HAMD-28, PHASE II [2, 8]: −10.170
- EFFECT on change in HAMD-28, POOLED PHASES [2, 8]: −9.240
- EFFECT on change in HAMD-28, PHASE I [2, 9]: −12.070
- EFFECT on change in HAMD-28, PHASE II [2, 9]: −10.170
- EFFECT on change in HAMD-28, POOLED PHASES [2, 9]: −10.880
- EFFECT on change in HAMD-28, PHASE I [2, 10]: −5.722
- EFFECT on change in HAMD-28, PHASE II [2, 10]: −5.768
- EFFECT on change in HAMD-28, POOLED PHASES [2, 10]: −4.996
- EFFECT on change in HAMD-28, PHASE I [2, 11]: −2.318
- EFFECT on change in HAMD-28, PHASE II [2, 11]: −5.267
- EFFECT on change in HAMD-28, POOLED PHASES [2, 11]: −4.811
- EFFECT on change in HAMD-28, PHASE I [2, 12]: −6.340
- EFFECT on change in HAMD-28, PHASE II [2, 12]: −4.940
- EFFECT on change in HAMD-28, POOLED PHASES [2, 12]: −5.360
- EFFECT on change in HAMD-28, PHASE I [2, 13]: −8.097
- EFFECT on change in HAMD-28, PHASE II [2, 13]: −4.667
- EFFECT on change in HAMD-28, POOLED PHASES [2, 13]: −6.748
- EFFECT on change in HAMD-28, PHASE I [2, 14]: −16.560
- EFFECT on change in HAMD-28, PHASE II [2, 14]: 1.667
- EFFECT on change in HAMD-28, POOLED PHASES [2, 14]: −7.627
- EFFECT on change in HAMD-28, PHASE I [2, 15]: −5.018
- EFFECT on change in HAMD-28, PHASE II [2, 15]: −3.424
- EFFECT on change in HAMD-28, POOLED PHASES [2, 15]: −3.758
- EFFECT on change in HAMD-28, PHASE I [2, 16]: −10.640
- EFFECT on change in HAMD-28, PHASE II [2, 16]: −3.893
- EFFECT on change in HAMD-28, POOLED PHASES [2, 16]: −6.903
- EFFECT on change in HAMD-28, PHASE I [2, 17]: −10.640
- EFFECT on change in HAMD-28, PHASE II [2, 17]: −3.893
- EFFECT on change in HAMD-28, POOLED PHASES [2, 17]: −6.903
- EFFECT on change in HAMD-28, PHASE I [2, 18]: −2.634
- EFFECT on change in HAMD-28, PHASE II [2, 18]: −6.232
- EFFECT on change in HAMD-28, POOLED PHASES [2, 18]: −4.027
- EFFECT on change in HAMD-28, PHASE I [2, 19]: −6.380
- EFFECT on change in HAMD-28, PHASE II [2, 19]: −4.542
- EFFECT on change in HAMD-28, POOLED PHASES [2, 19]: −4.863
- EFFECT on change in HAMD-28, PHASE I [2, 20]: −7.729
- EFFECT on change in HAMD-28, PHASE II [2, 20]: −5.417
- EFFECT on change in HAMD-28, POOLED PHASES [2, 20]: −6.654
- EFFECT on change in HAMD-28, PHASE I [2, 21]: −7.314
- EFFECT on change in HAMD-28, PHASE II [2, 21]: −3.300
- EFFECT on change in HAMD-28, POOLED PHASES [2, 21]: −5.402
- EFFECT on change in HAMD-28, PHASE I [2, 22]: −2.742
- EFFECT on change in HAMD-28, PHASE II [2, 22]: −3.762
- EFFECT on change in HAMD-28, POOLED PHASES [2, 22]: −3.496
- EFFECT on change in HAMD-28, PHASE I [2, 23]: −5.333
- EFFECT on change in HAMD-28, PHASE II [2, 23]: 2.833
- EFFECT on change in HAMD-28, POOLED PHASES [2, 23]: −5.551
- EFFECT on change in HAMD-28, PHASE I [2, 24]: −10.400
- EFFECT on change in HAMD-28, PHASE II [2, 24]: −3.900
- EFFECT on change in HAMD-28, POOLED PHASES [2, 24]: −6.216
- EFFECT on change in HAMD-28, PHASE I [2, 25]: −8.778
- EFFECT on change in HAMD-28, PHASE II [2, 25]: −1.400
- EFFECT on change in HAMD-28, POOLED PHASES [2, 25]: −5.458
- EFFECT on change in HAMD-28, PHASE I [2, 26]: −7.571
- EFFECT on change in HAMD-28, PHASE II [2, 26]: −1.400
- EFFECT on change in HAMD-28, POOLED PHASES [2, 26]: −4.860
- EFFECT on change in HAMD-28, PHASE I [2, 27]: −10.000
- EFFECT on change in HAMD-28, PHASE II [2, 27]: −2.750
- EFFECT on change in HAMD-28, POOLED PHASES [2, 27]: −7.673
